Laboratory results taken from patent US9474765B2, “Composition for lipolysis, containing phosphatidylcholine, and preparation method therefor” (AMI Pharm Co., Ltd., priority 2013, dated 2016).

Experiments:
[1] = tested on: Sprague-Dawley rats; experiment: Measuring the thickness of the soles of the hind feet after injection (edema, erythema); format: in vivo
Description: 0.1 ml of the injectable compositions of the above Table 1, Lipobean (purchased from Ami Pharm Co., Ltd.; positive control) or 2.5% sodium deoxycholate (hereinafter, “DC”; saline solution was used as a solvent) were injected into the soles of the hind feet of 6 week-old, male Sprague-Dawley rats (weight: 170-200 g), respectively. The thickness of the soles was measured by using calipers at 1, 2, 3, and 4 hours after injection, while test performers were not aware of the order or the purpose of tests (i.e. blind study).

[2] = tested on: Albino C57BL/6 mice; experiment: Determination of tissue necrosis through visual inspection after subcutaneous abdominal injection; format: in vivo; settings: 8 days after administration; for Tissue necrosis at the injected area (visual inspection): 0.2 ml s.c. into abdomen of obese mice, FIG. 8
Description: (§1) Albino C57BL/6 mice (4 weeks old) were fed with high fat diet (Research diet, 60% kcal lipid) to induce a high degree of obesity. Then, after 24 and 48 hours, 0.2 ml of saline solution (negative control group), injection compositions of Table 1, Lipobean, 2.5% DC were injected subcutaneously into the abdomen of the mice, respectively. Eight (8) days after the administration was completed, the mice were sacrificed.
Visual inspection was conducted on the subcutaneously injected areas of the sacrificed mice.

[3] = tested on: Sprague-Dawley rats; experiment: Histological test of the soles (hematoxylin eosin); format: in vivo; settings: 4 hours after administration, FIG. 3
Source text: Four (4) hours after the above described administration, rats were sacrificed of which soles were removed and their skins were incised and fixated in 10% formalin solution. Then, they were dyed in hematoxylin eosin solution to observe their morphological changes.

[4] = tested on: Myeloperoxidase (MPO) activity; experiment: MPO Activity Colorimetric Assay on hind feet tissue samples; format: in vivo, mice; settings: FIG. 4; comparison of groups
Description: Myeloperoxidase (MPO) activity was measured by using MPO Activity Colorimetric Assay Kit (BioVision, USA). The tissue samples of the hind feet of test animals in phosphatidylcholine (PC)-containing injection-administered test groups and sodium deoxycholate (DC)-administered group in various concentrations (PC 2.5%, PC 5%, DC 2.5%, PC 5%+DC 2.5%) were mixed in 4 times MPO assay buffer and centrifuged at 12,000 rpm for 10 minutes, followed by diluting each tissue sample with 25 μl of MPO assay buffer, respectively. The diluted samples were placed into standard, background sample of 96-well plate, while dividing reaction mix and background into their corresponding wells and cultivating at 25° C. for 120 minutes. Then, stop mix was added and left for 10 minutes. Subsequently, TNB reagent was added to equalize the total amount of each well to 150 μl, followed by sun blocking with aluminum foils and 10 minutes later measuring absorption value at 412 nm.

[5] = tested on: adipocytes; experiment: Observation of adipocytes in abdominal subcutaneous fats (H&E, optical microscope); format: in vivo, Albino C57BL/6 mice; settings: 0.2 ml s.c. into abdomen of obese mice, FIG. 9
Description: as §1
The abdomen of the sacrificed mice was incised, followed by rapid extraction of subcutaneous fats and their fixation in 4% formaldehyde solution. After fixation, washing & dehydrating were conducted and treated with paraffin solution to prepare paraffin blocks. Then, those paraffin blocks were thin-sliced in the thickness of 4 μm which were then dyed with hematoxylin & eosin for an optical microscopic observation.
The size of adipocytes in the saline control group and the PC injection-administered group were measured.

[6] = tested on: Prostaglandin E2 (PGE2); experiment: PGE2 Assay on hind feet tissue samples; format: in vivo, mice; settings: FIG. 7
Description: Prostaglandin E2 (PGE2) in the hind feet tissue samples of test animals in phosphatidylcholine (PC)-containing injection-administered test groups and sodium deoxycholate (DC)-administered group in various concentrations (PC 2.5%, PC 5%, DC 2.5%, PC 5%+DC 2.5%) was measured with PGE2 Assay (R&D System Inc., Minneapolis, USA). During cultivation, PGE2s in the hind feet tissue samples bound competitively with horse radish peroxidase (HRP)-labeled PGE2 to their mouse monoclonal antibodies. Unbound materials were removed by using washing buffer, while substrate solution was added to each well and left at room temperature with sunlight blocked. Then, stop solution was added, followed by measuring absorption value at 450 nm.

## sodium deoxycholate [DC 2.5%]
[1]; 0 h, 0.1 ml injected into soles of hind feet, calipers
  Measurement of the thickness of the feet: 0.324
[1]; 1 h after injection, 0.1 ml into soles of hind feet
  Measurement of the thickness of the feet: 0.720
[1]; 2 h after injection, 0.1 ml into soles of hind feet
  Measurement of the thickness of the feet: 0.706
[1]; 3 h after injection, 0.1 ml into soles of hind feet
  Measurement of the thickness of the feet: 0.682
[1]; 4 h after injection, 0.1 ml into soles of hind feet
  Measurement of the thickness of the feet: 0.625
[2]; listed as 2.5% DC
  Tissue necrosis at the injected area (visual inspection): severe necrosis with perforation in the skin
[2]; listed as DC
  Tissue necrosis at the injected area (visual inspection): severe tissue necrosis with perforation and fibrosis
[2]; 0.2 ml s.c. into abdomen
  Fibrosis (autopsy): fibrosis was spread to the surrounding tissues
[3]
  Edema and neutrophils in sole tissue (histology): both edema and neutrophils
[4]
  MPO activity in hind feet tissue: overall higher MPO activity
[5]
  Inflammation in abdominal subcutaneous fat (histology): greater degree of inflammation than other groups
  Lipolysis in abdominal subcutaneous fat (histology): Almost no lipolysis effect
[6]
  Level of PGE2 relative to phosphatidylcholine (PC)-administered test groups: ≥ 2 times
